test system: CEM WT, CEM AB9228, MOLT-4, Jurkat, NALL-1, WI-L2, K562, and HL-60 cells; test: Cytotoxicity to various proliferating cell lines (average); assay type: cell-based, human; conditions: Homo sapiens, average TC50 over various proliferating cell lines; read-out: TC50 (the source's name)
Experimental: (§1) (B) Similarly, compounds of the invention were tested for their ability to kill CEM WT, CEM AB9228, MOLT-4, Jurkat, NALL-1, WI-L2, K562, and HL-60 cells.

Point of comparison: `O=C1C(=Cc2cc(Cl)cc(Cl)c2)Cc2cc(O)c(O)cc21` [5,6-dihydroxy-2-(3',5'-dichlorophenylmethylene)-1-indanone], CC50 30 µM. Against it:
- COc1cc2c(cc1OC)C(=O)C(=Cc1cccc(OC)c1OC)CC2 [6,7-dimethoxy-2-(2',3'-dimethoxyphenylmethylene)-1-tetralone] — higher, > 50 µM
- COc1cc2c(cc1OC)C(=O)C(=Cc1c(Cl)cc(-c3ccncc3)cc1Cl)C2 [5,6-dimethoxy-2-(2',6'-dichloro-4'-(pyridin-4-yl)phenylmethylene)-1-indanone] — within 1.5-fold, 40 µM
- COc1cc2c(c(NC(=O)C(=O)O)c1OC)C(=O)C(=Cc1cc(C)c(O)c(C)c1)C2 [5,6-dimethoxy-7-oxalylamino-2-(3',5'-dimethyl-4'-hydroxyphenylmethylene)-1-indanone] — 7500-fold lower, 0.004 µM
- COc1ccc(OC)c(C=C2CCc3cc(OC)c(OC)cc3C2=O)c1 [6,7-dimethoxy-2-(2',5'-dimethoxyphenylmethylene)-1-tetralone] — 2.7-fold lower, 11 µM
- COc1ccc2c(c1)C(=O)C(=Cc1cc(C)c(O)c(C)c1)C2 [6-methoxy-2-(3',5'-dimethyl-4'-hydroxyphenylmethylene)-1-indanone] — higher, > 50 µM
- COc1cc2c(cc1OC)C(=O)C(=Cc1cc(C)cc(C)c1)CC2 [6,7-dimethoxy-2-(3',5'-dimethylphenylmethylene)-1-tetralone] — 7.5-fold lower, 4 µM
- COc1cc2c(cc1OC)C(=O)C(=Cc1cc(OC)c(OC)c(OC)c1)CC2 [6,7-dimethoxy-2-(3',4',5'-trimethoxyphenylmethylene)-1-tetralone] — higher, > 50 µM
- COc1cc2c(c(N)c1OC)C(=O)C(=Cc1cc(C)c(O)c(C)c1)C2 [5,6-dimethoxy-7-amino-2-(3',5'-dimethyl-4'-hydroxyphenylmethylene)-1-indanone] — 6000-fold lower, 0.005 µM
- COc1cccc2c1C(=O)C(=Cc1cc(C)c(O)c(C)c1)C2 [7-methoxy-2-(3',5'-dimethyl-4'-hydroxyphenylmethylene)-1-indanone] — 1.7-fold higher, 51 µM
- COc1cc2c(cc1OC)C(=O)C(=Cc1cccc(Cl)c1)C2 [5,6-dimethoxy-2-(3'-chlorophenylmethylene)-1-indanone] — higher, > 50 µM
- COc1ccc(C=C2CCc3cc(OC)c(OC)cc3C2=O)cc1 [6,7-dimethoxy-2-(4'-methoxyphenylmethylene)-1-tetralone] — higher, > 50 µM
- COc1cc(O)c(C=C2CCc3cc(OC)c(OC)cc3C2=O)c(OC)c1 [6,7-dimethoxy-2-(2',4'-dimethoxy-6'-hydroxyphenylmethylene)-1-tetralone] — 3-fold lower, 10 µM
- COc1cc2c(cc1OC)C(=O)C(=CC1(O)CC(OC)CC(OC)C1)C2 (centres unmarked) [5,6-dimethoxy-2-(3',5'-dimethoxy-1'-hydroxycyclohexylmethylene)-1-indanone] — 15-fold lower, 2 µM
- COc1cc2c(cc1OC)C(=O)C(=Cc1cc(C)ccc1C)C2 [5,6-dimethoxy-2-(2',5'-dimethylphenylmethylene)-1-indanone] — 5.4-fold higher, 162 µM
- COc1cc2c(cc1OC)C(=O)C(=Cc1ccc(O)cc1)CC2 [6,7-dimethoxy-2-(4'-hydroxyphenylmethylene)-1-tetralone] — the same, 30 µM
- O=C1C(=Cc2cc(O)c(O)c(O)c2)CCc2cc(O)c(O)cc21 [6,7-dihydroxy-2-(3',4',5'-trihydroxyphenylmethylene)-1-tetralone] — within 1.5-fold, 43 µM
- COc1cc2c(cc1OC)C(=O)C(=Cc1cc(F)cc(F)c1)C2 [5,6-dimethoxy-2-(3',5'-difluorophenylmethylene)-1-indanone] — 1.6-fold lower, 19 µM
- O=C1C(=Cc2cccc(O)c2O)CCc2cc(O)c(O)cc21 [6,7-dihydroxy-2-(2',3'-dihydroxyphenylmethylene)-1-tetralone] — higher, > 50 µM
- COc1cc2c(cc1OC)C(=O)C(=Cc1cc(C)c(OC(=O)CCC(=O)O)c(C)c1)C2 [5,6-dimethoxy-2-(3',5'-dimethyl-4'-O-succinylphenylmethylene)-1-indanone] — 30-fold lower, 1 µM
- COc1cc2c(cc1OC)C(=O)C(=Cc1c(C)cccc1C)CC2 [6,7-dimethoxy-2-(2',6'-dimethylphenylmethylene)-1-tetralone] — higher, > 50 µM
- COc1cc2c(cc1OC)C(=O)C(=Cc1cc(C)ccc1C)CC2 [6,7-dimethoxy-2-(2',5'-dimethylphenylmethylene)-1-tetralone] — 6-fold lower, 5 µM
- COc1cc(C=C2Cc3cc4c(cc3C2=O)OCO4)cc(OC)c1 [5,6-methylenedioxy-2-(3',5'-dimethoxyphenylmethylene)-1-indanone] — higher, > 50 µM
- COc1cc2c(cc1OC)C(=O)C(=Cc1ccc(N)cc1)CC2 [6,7-dimethoxy-2-(4'-aminophenylmethylene)-1-tetralone] — higher, > 50 µM
- COc1cc2c(cc1OC)C(=O)C(=Cc1cc(OC(F)(F)F)cc(OC(F)(F)F)c1)C2 [5,6-dimethoxy-2-(3',5'-ditrifluoromethoxyphenylmethylene)-1-indanone] — higher, > 100 µM
- COc1cc2c(cc1OC)C(=O)C(=Cc1ccc(O)c(C(=O)O)c1)CC2 [6,7-dimethoxy-2-(3'-hydrocarboxy-4'-hydroxyphenylmethylene)-1-tetralone] — higher, > 50 µM
- COc1cc2c(cc1OC)C(=O)C(=Cc1c(O)cc(I)cc1I)C2 [5,6-dimethoxy-2-(2'-hydroxy-4',6'-diiodophenylmethylene)-1-indanone] — 1.7-fold lower, 18 µM

same assay, conditions: Homo sapiens, read-out: TC50

In the case of `COc1cc2c(cc1OC)C(=O)/C(=C/c1cc(C)c(O)c(C)c1)C2` [5,6-dimethoxy-2-(3',5'-dimethyl-4'-hydroxyphenylmethylene)-1-indanone], the CC50 is reported as 0.017 µM.

same assay, conditions: average TC50 over various proliferating cell lines; read-out: TC50 (the source's name)

Point of comparison: “5,6-dimethoxy-2-(3',5'-dimethyl-4'-phosphonoacetylphenylmethylene)-1-indanone”, CC50 0.007 µM. Against it:
- 6,7-dimethoxy-2-(4'-(pyridine-N-oxide)phenylmethylene)-1-tetralone — higher, > 50 µM
- COc1cc2c(cc1OC)C(=O)C(=Cc1cc(F)cc(F)c1)C2 [5,6-dimethoxy-2-(3',5'-difluorophenylmethylene)-1-indanone (] — 3700-fold higher, 26 µM

test system: proliferating cells; test: Ability of further compounds to kill proliferating cells (average); assay type: cell-based; conditions: average TC50, proliferating cells; read-out: TC50 (the source's name)
Experimental: as §1
(C) Proceeding as described above, further compounds were tested for their ability to kill proliferating cells.

Point of comparison: `COc1cc2c(cc1OC)C(=O)C(=Cc1cc(OC)c(O)c(OC)c1)CC2` [6,7-dimethoxy-2-(3',5'-dimethoxy-4'-hydroxyphenylmethylene)-1-tetralone], CC50 6 µM. Against it:
- COc1cc2c(cc1OC)C(=O)C(=Cc1cccc(OC)c1OC)CC2 [6,7-dimethoxy-2-(2',3'-dimethoxyphenylmethylene)-1-tetralone] — higher, > 50 µM
- COc1cc2c(cc1OC)C(=O)C(=Cc1cc(C(F)(F)F)cc(C(F)(F)F)c1)C2 [5,6-dimethoxy-2-(3',5'-ditrifluoromethylphenylmethylene)-1-indanone] — higher, > 50 µM
- COc1cc2c(cc1OC)C(=O)C(=Cc1cc(C)c([N+](=O)[O-])c(C)c1)C2 [5,6-dimethoxy-2-(3',5'-dimethyl-4'-nitrophenylmethylene)-1-indanone] — higher, > 50 µM
- COc1cc2c(c(NC(=O)C(=O)O)c1OC)C(=O)C(=Cc1cc(C)c(O)c(C)c1)C2 [5,6-dimethoxy-7-oxalylamino-2-(3',5'-dimethyl-4'-hydroxyphenylmethylene)-1-indanone] — 40-fold lower, 0.15 µM
- COc1cc2c(cc1OC)C(=O)C(=Cc1cc(C)c(OC(C)=O)c(C)c1)C2 [5,6-dimethoxy-2-(3',5'-dimethyl-4'-acetoxyphenylmethylene)-1-indanone] — 15-fold lower, 0.4 µM
- COc1cc(C=C2Cc3cc(C)c(C)cc3C2=O)cc(OC)c1 [5,6-dimethyl-2-(3',5'-dimethoxyphenylmethylene)-1-indanone] — higher, > 50 µM
- COC(=O)C(=O)Nc1c(OC)c(OC)cc2c1C(=O)C(=Cc1cc(C)c(O)c(C)c1)C2 [5,6-dimethoxy-7-methoxalylamino-2-(3',5'-dimethyl-4'-hydroxyphenylmethylene)-1-indanone] — 30-fold lower, 0.2 µM
- COc1cc2c(c(N)c1OC)C(=O)C(=Cc1cc(C)c(O)c(C)c1)C2 [5,6-dimethoxy-7-amino-2-(3',5'-dimethyl-4'-hydroxyphenylmethylene)-1-indanone] — 7500-fold lower, 0.0008 µM
- COc1cc2c(cc1OC)C(=O)C(=Cc1c(OC)cccc1OC)CC2 [6,7-dimethoxy-2-(2',6'-dimethoxyphenylmethylene)-1-tetralone] — higher, > 50 µM
- COc1cc2c(cc1OC)C(=O)C(=Cc1cc(C)c(OC(=O)CP(=O)(O)O)c(C)c1)C2 [5,6-dimethoxy-2-(3',5'-dimethyl-4'-phosphonoacetoxyphenylmethylene)-1-indanone] — 1.9-fold higher, 11.5 µM
- COc1cc2c(cc1OC)C(=O)C(=Cc1cccc(Cl)c1)C2 [5,6-dimethoxy-2-(3'-chlorophenylmethylene)-1-indanone] — 2.4-fold lower, 2.5 µM
- COc1ccc(C=C2CCc3cc(OC)c(OC)cc3C2=O)cc1 [6,7-dimethoxy-2-(4'-methoxyphenylmethylene)-1-tetralone] — higher, > 50 µM
- COc1cc2c(cc1OC)C(=O)C(=Cc1cc(C)ccc1C)C2 [5,6-dimethoxy-2-(2',5'-dimethylphenylmethylene)-1-indanone] — 5.1-fold higher, 30.5 µM
- COc1cc2c(cc1OC)C(=O)C(=Cc1ccc(O)cc1)CC2 [6,7-dimethoxy-2-(4'-hydroxyphenylmethylene)-1-tetralone] — 5-fold higher, 30 µM
- COc1ccccc1C=C1CCc2cc(OC)c(OC)cc2C1=O [6,7-dimethoxy-2-(2'-methoxyphenylmethylene)-1-tetralone] — higher, > 50 µM
- COc1cc(C=C2Cc3cc(OC)ccc3C2=O)cc(OC)c1 [5-methoxy-2-(3',5'-dimethoxyphenylmethylene)-1-indanone] — higher, > 50 µM
- COc1cc2c(cc1OC)C(=O)C(=Cc1cc(F)cc(F)c1)C2 [5,6-dimethoxy-2-(3',5'-difluorophenylmethylene)-1-indanone] — 3.2-fold higher, 19 µM
- COc1cc2c(cc1OC)C(=O)C(=Cc1cc(C)c(OC(=O)CCC(=O)O)c(C)c1)C2 [5,6-dimethoxy-2-(3',5'-dimethyl-4'-succinophenylmethylene)-1-indanone] — 86-fold lower, 0.07 µM
- COc1cc2c(c(NC(=O)C=O)c1OC)C(=O)C(=Cc1cc(C)c(O)c(C)c1)C2 [5,6-dimethoxy-7-(NHCOCOH)-2-(3',5'-dimethyl-4'-hydroxyphenylmethylene)-1-indanone] — 4000-fold lower, 0.0015 µM
- COc1cccc(C=C2CCc3cc(OC)c(OC)cc3C2=O)c1 [6,7-dimethoxy-2-(3'-methoxyphenylmethylene)-1-tetralone] — within 1.5-fold, 5 µM
- O=C1C(=Cc2cc(Cl)cc(Cl)c2)Cc2ccccc21 [2-(3',5'-dichlorophenylmethylene)-1-indanone] — 5-fold higher, 30 µM
- COc1ccc(C=C2CCc3cc(OC)c(OC)cc3C2=O)c(OC)c1 [6,7-dimethoxy-2-(2',4'-dimethoxyphenylmethylene)-1-tetralone] — higher, > 50 µM
- COc1cc2c(cc1OC)C(=O)C(=Cc1cc(I)cc(I)c1O)C2 [5,6-dimethoxy-2-(2'-hydroxy-3',5'-diiodophenylmethylene)-1-indanone] — 2.1-fold higher, 12.5 µM
- COc1cc2c(cc1OC)C(=O)C(=Cc1cc(Cl)cc(Cl)c1)CC2 [6,7-dimethoxy-2-(3',5'-dichlorophenylmethylene)-1-tetralone] — within 1.5-fold, 7 µM
- COc1cc2c(cc1OC)C(=O)C(=Cc1cccc([N+](=O)[O-])c1)CC2 [6,7-dimethoxy-2-(3'-nitrophenylmethylene)-1-tetralone] — 1.5-fold higher, 9 µM
- COc1cc2c(cc1OC)C(=O)C(=Cc1cccc(Cl)c1)CC2 [6,7-dimethoxy-2-(3'-chlorophenylmethylene)-1-tetralone] — 1.5-fold higher, 9 µM

same assay, conditions: read-out: TC50

In the case of `COc1cc2c(cc1OC)C(=O)/C(=C/c1cc(C)c(O)c(C)c1)C2` [5,6-dimethoxy-2-(3',5'-dimethyl-4'-hydroxyphenylmethylene)-1-indanone], the CC50 is reported as 0.0065 µM.

— patent US6162810A, “Inadone and tetralone compounds for inhibiting cell proliferation” (The Regents of the University of California, priority 1998, dated 2000)
